These results are taken from patent US11382912B2, “Controlled-release preparation” (NIPPON SHINYAKU CO., LTD., priority 2017, dated 2022).

Chain of PGI2 receptor (P43119 whole entry, species assumed): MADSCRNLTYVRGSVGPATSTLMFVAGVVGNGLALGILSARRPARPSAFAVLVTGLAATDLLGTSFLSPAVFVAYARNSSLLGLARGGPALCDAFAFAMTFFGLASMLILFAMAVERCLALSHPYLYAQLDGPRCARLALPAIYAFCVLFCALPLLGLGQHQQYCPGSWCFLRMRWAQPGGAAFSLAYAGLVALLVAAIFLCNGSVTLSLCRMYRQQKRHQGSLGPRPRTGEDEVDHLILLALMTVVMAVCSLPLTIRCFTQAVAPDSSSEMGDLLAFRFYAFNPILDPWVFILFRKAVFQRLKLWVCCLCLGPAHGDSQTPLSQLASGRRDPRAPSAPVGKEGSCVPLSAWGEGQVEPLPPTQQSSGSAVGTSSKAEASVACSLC

One data set has as its target PGI2 receptor (Homo sapiens, UniProt P43119).
Assay: not given
The conditions noted are these: known, PTL 7 to PTL 12; cited from earlier work.
In the case of `CC(C)N(CCCCOCC(=O)NS(C)(=O)=O)c1cnc(-c2ccccc2)c(-c2ccccc2)n1` [Compound A, 2-{4-[N-(5,6-diphenylpyrazin-2-yl)-N-isopropylamino]butyloxy}-N-(methylsulfonyl)acetamide], the “PGI2 receptor agonistic effect” value is on record as “excellent”.

System in the next data set: not given
Assay: not given
The note with it: known, NPL 1; cited from earlier work.
Consider `CC(C)N(CCCCOCC(=O)NS(C)(=O)=O)c1cnc(-c2ccccc2)c(-c2ccccc2)n1` [Compound A, 2-{4-[N-(5,6-diphenylpyrazin-2-yl)-N-isopropylamino]butyloxy}-N-(methylsulfonyl)acetamide], for which the Solubility result was “depend on pH”.

System in another data set: not listed separately
Put plainly: pH of alkaline substance at 0.1 wt % in water. The note with it: dissolved or dispersed in water at 0.1 wt %. Format: physicochemical. As for the experimental part: The pH of the alkaline substance was measured according to the following method.
The alkaline substance was dissolved (or dispersed) in water at 0.1 wt %, and the pH of the solution (or the dispersion) was determined using a pH METER HM-30R (manufactured by DKK-TOA Corporation).
In turn, `O=C([O-])[O-].[Ca+2]` [Calcium carbonate] gave a pH of 9.8.
Same read-out and setting: in the case of `[Ca+2].[OH-].[OH-]` [Calcium hydroxide] it was 12.2; in that of `O=C([O-])[O-].[Na+].[Na+]` [Dried sodium carbonate], 11.0.
Consider `[Mg+2].[OH-].[OH-]` [Magnesium hydroxide], for which the pH came out at 10.3.
Still for that read-out and setting: as for `[O]=[Mg]` [Magnesium oxide], the figure is 10.7; as for `CNC[C@H](O)[C@@H](O)[C@H](O)[C@H](O)CO` [Meglumine], 10.6.
`O=C([O-])[O-].[K+].[K+]` [Potassium carbonate] displayed a pH of 10.9.
Consider `CC(=O)[O-].[Na+]` [Sodium acetate], for which the pH is 7.6.
On the same count and under the same terms, as for `O=C([O-])O.[Na+]` [Sodium bicarbonate], the figure is 8.5; as for `O=P([O-])([O-])O.[Na+].[Na+]` [Sodium hydrogen phosphate], 9.2; as for `O=C([O-])CC(O)(CC(=O)[O-])C(=O)[O-].[Na+].[Na+].[Na+]` [Trisodium citrate], 8.3.
